Legend:
[1] = Stability of liver microsomes; type: in vitro ADME; settings: 10 umol/L
Experimental: Liver microsomes belonging to different species (human, rat) were respectively reacted with the compound according to the present invention for a certain period of time, and the residual rate was calculated by comparing a reacted sample with an unreacted sample, and the extent to which the compounds according to the present invention were metabolized by the liver was evaluated.

[2] = test system: main human CYP molecular species (CYP1A2, 2B6, 2C8, 2C9, 2C19, 2D6 and 3A4); assay: CYP inhibition test in mixed human liver microsomes; type: in vitro ADME
Experimental: Commercially available mixed human liver microsomes were used for the typical substrate metabolism reaction of the main human CYP molecular species (CYP1A2, 2B6, 2C8, 2C9, 2C19, 2D6 and 3A4). The reaction conditions were as follows: substrate, CYP1A2: 30 μM of phenacetin; CYP2C9: diclofenac 10 μM; CYP2C19: 35 μM of S-methphenytoin; CYP3A4: midazolam 5 μM, testosterone 80 μM; CYP2D6: bufuralol, 10 μM; CYP2C8: 10 μM of paclitaxel; and CYP2B6: bupropion 70 μM; reaction time, CYP1A2, 2C9, 2D6, 2C8, 2B6: 10 min; CYP2C19: 45 min; and CYP3A4: 5 min. Reaction temperature, 37° C. Inhibitor (positive control), CYP1A2: α-naphthoflavone; CYP2C9: sulfaphenazole; CYP2C19: omeprazole; CYP3A4: ketoconazole; CYP2D6: quinidine; CYP2C8: nicardipine; and CYP2B6: clopidogrel.
A series of dilutions for the test compound and the positive control were prepared in a 96-well plate, and 8 μL of 10 mM test compound was transferred to 12 μL of ACN. 1:3 serial dilution was performed in a DMSO:ACN mixture (v/v: 40:60). HLM was added to assay wells, and then the test compound or a reference inhibitor solution diluted with serum was added to the designated wells on ice. After the 96-well plate and NADPH solution was pre-incubated at 37° C. for 5 min, 15 μL of the pre-warmed 8 mM NADPH solution was added to the assay plate to start the reaction. […]

rat CIA model [3] = assay: Hindfoot foot volume in rat CIA model; type: in vivo, Lewis rats; settings: CIA rats; for Foot volume (ml)/Day: hindfoot
Experimental: (§1) Lewis rats (female, 10-12 weeks old) were obtained from Beijing Vital River Laboratory Animal Technology Co., Ltd. The rats were on a light and dark alternation for 12 h, and the environment was kept at a temperature of 23±2° C. and a humidity of 40-70%.
(§2) Type II collagen solution (2 mg/mL) was prepared with 0.05 M acetic acid solution to allow to be fully dissolved, and placed overnight in the dark at 4° C. During the test, 2 mg/mL type II collagen (C II) solution and 4 mg/mL complete Freund's adjuvant (CFA) solution were mixed in equal volumes under ice bath conditions to fully emulsify. On day 0, an emulsion prepared by mixing equal volumes of C II (2 mg/mL) and CFA (4 mg/mL) was injected intracutaneously into the base of the tail of experimental rats for primary immunization, and on day 7, secondary booster immunization was performed.
(§3) The therapeutic effect of the test compound was tested in a rat CIA model. The rats were randomly divided into groups with 8 animals in each group. All animals were immunized on day 0 and boosted on day 7.
Therefore, the differences in body weight and foot volume after the onset of arthritis compared with the negative group, respectively, can be used to evaluate the therapeutic effect in the rat model. The experimental data were expressed as Mean±SEM; the data between the two groups was tested by unpaired t-test and p<0.05 was considered as a significant difference.

rat CIA model [4] = assay: Arthritis index (AI) of extremities in rat CIA model; settings: CIA rats; for Arthritis index/Day: score 0-16;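 on all read-outs here: rats immunized with type II collagen plus complete Freund's adjuvant on day 0, boosted day 7, groups of 8, each paw graded 0-4 for swelling or redness, higher means worse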
Experimental: as §1, §2, §3
Foot volume was scored for the swelling of four toes at the same time, the score for each foot was 0-4, and the highest score for each rat was 16. 0—no swelling, normal appearance; 1—mild swelling or redness of the ankle joint, wrist joint or finger joint; 2—moderate swelling or redness of the ankle joint, wrist joint or finger joint; 3—severe swelling or redness of the ankle joint, wrist joint or finger joint; 4—very severe swelling or redness of the ankle joint, wrist joint or finger joint.

[5] = 2 mg/kg oral gavage once daily for 2 w, day 0
[6] = 2 mg/kg oral gavage once daily for 2 w, day 8
[7] = 2 mg/kg oral gavage once daily for 2 w, day 11
[8] = 2 mg/kg oral gavage once daily for 2 w, day 14
[9] = 2 mg/kg oral gavage once daily for 2 w, day 17
[10] = 2 mg/kg oral gavage once daily for 2 w, day 21
[11] = 2 mg/kg oral gavage once daily for 2 w, day 24
[12] = 2 mg/kg oral gavage once daily for 2 w, day 28
[13] = 3 mg/kg oral gavage once daily for 2 w, day 0
[14] = 3 mg/kg oral gavage once daily for 2 w, day 8
[15] = 3 mg/kg oral gavage once daily for 2 w, day 11
[16] = 3 mg/kg oral gavage once daily for 2 w, day 14
[17] = 3 mg/kg oral gavage once daily for 2 w, day 17
[18] = 3 mg/kg oral gavage once daily for 2 w, day 21
[19] = 3 mg/kg oral gavage once daily for 2 w, day 24
[20] = 3 mg/kg oral gavage once daily for 2 w, day 28
[21] = 5 mg/kg oral gavage once daily for 2 w, day 0
[22] = 5 mg/kg oral gavage once daily for 2 w, day 11
[23] = 5 mg/kg oral gavage once daily for 2 w, day 14
[24] = 5 mg/kg oral gavage once daily for 2 w, day 17
[25] = 5 mg/kg oral gavage once daily for 2 w, day 21
[26] = 5 mg/kg oral gavage once daily for 2 w, day 24
[27] = 5 mg/kg oral gavage once daily for 2 w, day 28
[28] = 10 mg/kg oral gavage once daily for 2 w, day 0
[29] = 10 mg/kg oral gavage once daily for 2 w, day 8
[30] = 10 mg/kg oral gavage once daily for 2 w, day 11
[31] = 10 mg/kg oral gavage once daily for 2 w, day 14
[32] = 10 mg/kg oral gavage once daily for 2 w, day 17
[33] = 10 mg/kg oral gavage once daily for 2 w, day 21
[34] = 10 mg/kg oral gavage once daily for 2 w, day 24
[35] = 10 mg/kg oral gavage once daily for 2 w, day 28

O=C(Nc1cn2c(-c3ccc(CN4CCS(=O)(=O)CC4)s3)cccc2n1)[C@H]1C[C@@H]1F (relative stereo) [EXP-3, trans-N-[5-[5-[(1,1-dioxo-1,4-thiazin-4-yl)methyl]-2-thiophene]imidazo[1,2-a]pyridin-2-yl]-2-fluoro-cyclopropylcarboxamide]
residual rate of the compound in oxidative metabolism ([1]; human liver microsomes): 59.32%
residual rate of the compound in oxidative metabolism ([1]; rat liver microsomes): 55.3%
CYP inhibition [2]: no inhibitory effect
foot volume, relative potency in words (rat CIA model [3]; 10 mg/kg): the most potent and significantly stronger than filgotinib 10 mg/kg
Foot volume (ml)/Day (rat CIA model [3]; [5]): 2.603 ± 0.021 mL
Foot volume (ml)/Day (rat CIA model [3]; [6]): 2.590 ± 0.027 mL
Foot volume (ml)/Day (rat CIA model [3]; [7]): 2.634 ± 0.059 mL
Foot volume (ml)/Day (rat CIA model [3]; [8]): 3.648 ± 0.303 mL
Foot volume (ml)/Day (rat CIA model [3]; [9]): 4.465 ± 0.261 mL
Foot volume (ml)/Day (rat CIA model [3]; [10]): 4.600 mL
Foot volume (ml)/Day (rat CIA model [3]; [11]): 4.487 mL
Foot volume (ml)/Day (rat CIA model [3]; [12]): 4.181 mL
Foot volume (ml)/Day (rat CIA model [3]; [13]): 2.633 ± 0.017 mL
Foot volume (ml)/Day (rat CIA model [3]; [14]): 2.624 ± 0.010 mL
Foot volume (ml)/Day (rat CIA model [3]; [15]): 2.706 ± 0.037 mL
Foot volume (ml)/Day (rat CIA model [3]; [16]): 3.724 ± 0.239 mL
Foot volume (ml)/Day (rat CIA model [3]; [17]): 4.759 ± 0.291 mL
Foot volume (ml)/Day (rat CIA model [3]; [18]): 4.863 mL
Foot volume (ml)/Day (rat CIA model [3]; [19]): 4.754 mL
Foot volume (ml)/Day (rat CIA model [3]; [20]): 4.299 mL
Foot volume (ml)/Day (rat CIA model [3]; [21]): 2.631 ± 0.017 mL
Foot volume (ml)/Day (rat CIA model [3]; [22]): 2.703 ± 0.061 mL
Foot volume (ml)/Day (rat CIA model [3]; [23]): 3.684 ± 0.315 mL
Foot volume (ml)/Day (rat CIA model [3]; [24]): 4.516 ± 0.302 mL
Foot volume (ml)/Day (rat CIA model [3]; [25]): 4.724 mL
Foot volume (ml)/Day (rat CIA model [3]; [26]): 4.582 mL
Foot volume (ml)/Day (rat CIA model [3]; [27]): 4.176 mL
Foot volume (ml)/Day (rat CIA model [3]; [28]): 2.645 ± 0.017 mL
Foot volume (ml)/Day (rat CIA model [3]; [29]): 2.613 ± 0.017 mL
Foot volume (ml)/Day (rat CIA model [3]; [30]): 2.647 ± 0.075 mL
Foot volume (ml)/Day (rat CIA model [3]; [31]): 3.652 ± 0.287 mL
Foot volume (ml)/Day (rat CIA model [3]; [32]): 4.249 ± 0.342 mL
Foot volume (ml)/Day (rat CIA model [3]; [33]): 4.331 mL
Foot volume (ml)/Day (rat CIA model [3]; [34]): 4.125 mL
Foot volume (ml)/Day (rat CIA model [3]; [35]): 3.826 mL
Arthritis index/Day (rat CIA model [4]; [5]): 0 ± 0
Arthritis index/Day (rat CIA model [4]; [6]): 0 ± 0
Arthritis index/Day (rat CIA model [4]; [7]): 0.50 ± 0.33
Arthritis index/Day (rat CIA model [4]; [8]): 3.63 ± 0.91
Arthritis index/Day (rat CIA model [4]; [9]): 6.25 ± 1.36
Arthritis index/Day (rat CIA model [4]; [10]): 9.00 ± 1.24
Arthritis index/Day (rat CIA model [4]; [11]): 9.13 ± 1.04
Arthritis index/Day (rat CIA model [4]; [12]): 8.63 ± 0.63
Arthritis index/Day (rat CIA model [4]; [13]): 0 ± 0
Arthritis index/Day (rat CIA model [4]; [14]): 0 ± 0
Arthritis index/Day (rat CIA model [4]; [15]): 0.38 ± 0.18
Arthritis index/Day (rat CIA model [4]; [16]): 3.75 ± 0.70
Arthritis index/Day (rat CIA model [4]; [17]): 6.25 ± 0.75
Arthritis index/Day (rat CIA model [4]; [18]): 10.25 ± 0.70
Arthritis index/Day (rat CIA model [4]; [19]): 10.88 ± 0.44
Arthritis index/Day (rat CIA model [4]; [20]): 9.25 ± 0.45
Arthritis index/Day (rat CIA model [4]; [21]): 0 ± 0
Arthritis index/Day (rat CIA model [4]; 5 mg/kg oral gavage once daily for 2 w, day 8): 0 ± 0
Arthritis index/Day (rat CIA model [4]; [22]): 0.63 ± 0.26
Arthritis index/Day (rat CIA model [4]; [23]): 3.50 ± 0.76
Arthritis index/Day (rat CIA model [4]; [24]): 5.88 ± 1.22
Arthritis index/Day (rat CIA model [4]; [25]): 9.00 ± 1.22
Arthritis index/Day (rat CIA model [4]; [26]): 9.13 ± 1.04
Arthritis index/Day (rat CIA model [4]; [27]): 8.00 ± 0.65
arthritis index, relative effect on swelling of the extremities in words (rat CIA model [4]; 10 mg/kg): strongest effect on reducing swelling of the extremities
Arthritis index/Day (rat CIA model [4]; [28]): 0 ± 0
Arthritis index/Day (rat CIA model [4]; [29]): 0 ± 0
Arthritis index/Day (rat CIA model [4]; [30]): 0.38 ± 0.38
Arthritis index/Day (rat CIA model [4]; [31]): 3.75 ± 0.70
Arthritis index/Day (rat CIA model [4]; [32]): 5.00 ± 0.89
Arthritis index/Day (rat CIA model [4]; [33]): 6.50 ± 0.50
Arthritis index/Day (rat CIA model [4]; [34]): 7.25 ± 0.56
Arthritis index/Day (rat CIA model [4]; [35]): 7.25 ± 0.41

— patent US20220274983A1, “JAK KINASE INHIBITOR AND USE THEREOF” (JIANGSU CAREPHAR PHARMACEUTICAL CO., LTD., priority 2019, published 2022)
